Laboratory results as given in patent US20190054054A1, “Methods reducing or preventing oxidation of high density lipoprotein (HDL)” (Amarin Pharmaceuticals Ireland Limited, priority 2017, published 2019).

Experiments:
HUVECs = assay: NO and ONOO^− release from HUVECs pretreated with agents, then exposed to oxLDL (Example 11, Objective 1); format: cell-based, human; conditions: pretreatment 30 min, agents at 10 μM, then oxLDL 11 mg/dL up to 3 hr; for NO / ONOO^−: calcium ionophore 1.0 μM
Description: The omega-3 fatty acid, cis-5,8,11,14,17-eicosapentaenoic acid (EPA) and docosahexaenoic acid (DHA) were purchased from Sigma-Aldrich (Saint Louis, Mo.) and solubilized in redistilled ethanol to 11 mM under nitrogen atmosphere. EPA and DHA stock solutions were stored at −20° C. until use.
Human umbilical vein endothelial cells (HUVECs) were obtained from healthy, female donors and isolated into primary, proliferating cell cultures (Clonetics, San Diego, Calif.). […] The confluent cells (4 to 5×10^5 cells/35 mm dish) were plated with minimum essential medium containing 3 mM L-arginine and 0.1 mM BH4 [(6R)-5,6,7,8-tetrahydrobiopterin]. Before experimental use, the cells (from second or third passage) were rinsed twice with Tyrode-HEPES buffer with 1.8 mM CaCl2.
Venous blood was collected from healthy volunteers into vacutainer tubes containing sodium EDTA. […] The LDL subfraction was retained for additional experimentation. Plasma and lipoprotein fractions were maintained at 4° C. and protected from excessive exposure to light. Prior to oxidation experiments, EDTA was removed from the lipoprotein fraction using PD-10 desalting columns (GE Healthcare, Piscataway N.J.). After equilibration of the column with phosphate buffered saline (PBS), 2.5 mL of the lipoprotein fraction was loaded on the column and the flow-through discarded. The lipoprotein was then eluted with 3 mL of PBS. The LDL fractions were further diluted with PBS to obtain a 100 μg/mL apoB100 concentration.
LDL underwent oxidation following the addition of 10 μM CuSO4. To measure oxidation, 100 μL aliquots were removed and combined with 1.0 mL thiobarbituric acid (0.5%), 10 μL trichloroacetic acid (5%), 10 μL BHT (5 mg/mL in methanol), and 10 μL EDTA (5 mM). […] Sample TBARS concentrations were determined spectrophotometrically by measuring sample absorbances against a standard curve derived from the hydrolysis of 1,1,3,3-tetramethoxypropane.
Concurrent measurements of NO and ONOO^− were performed with tandem electrochemical nanosensors combined into one working unit with a total diameter of 200-400 nm. Their design is based on previously developed and chemically modified carbon-fiber technology. Each of the nanosensors was made by depositing a sensing material on the tip of a carbon fiber (length 4 to 5 μm, diameter 100-200 nm). The fibers were sealed with nonconductive epoxy and electrically connected to copper wires with conductive silver epoxy. Conductive films of polymeric Ni(II) tetrakis (3-methoxy-4-hydroxyphenyl) porphyrin and Mn(III) [2.2] paracyclophanyl-porphyrin were used for the NO and ONOO^− sensors, respectively.
The amperometric method (with a response time of 0.1 ms) provides a quantitative signal (current) that is directly proportional to changes (from basal levels) in NO or ONOO^− concentration. Amperometric measurements were performed with a Gamry III double-channel potentiostat. Basal NO or ONOO^− levels were measured by differential pulse voltammetry in separate experiments.
All measurements of NO and ONOO^− were performed on intact endothelial cells. The NO/ONOO^− nanosensor module was positioned 5±2 μm from the surface of each individual endothelial cell using a computer-controlled M3301 micromanipulator (x-y-z resolution of 0.2 μm) and microscope (both from World Precision Instruments, Berlin, Germany) fitted with a CD camera. […] Cells will then be treated with calcium ionophore (to maximally stimulate the release of nitrous molecules) and monitored continuously for changes in amperometric current.
Data are presented as mean+S.D. for (N) separate samples or treatment groups. Differences between groups were analyzed using the two-tailed, Student's t-test (for comparisons between only two groups) or ANOVA followed by Dunnett or Student-Newman-Keuls multiple comparisons post-hoc analysis (for comparisons between three or more groups). Alpha error was set to 0.05 in this study.
NO and ONOO^− release were measured following stimulation with calcium.

human LDL = assay: Copper-induced oxidation of unfractionated LDL, TBARS (Example 7); format: biochemical; conditions: for effect on unfractionated LDL oxidation as compared to vehicle-treated controls: all agents at 10 μM, 1 hour (FIG. 25)
Description: An experiment to study the antioxidant effect of EPA in LDL and small dense […] performed. […] Fenofibrate, gemfibrozil, and niacin were purchased from Sigma-Aldrich. […] Vitamin E was also incubated with sample aliquots as a positive control.

Question: How did the NO (HUVECs) turn out when `CC/C=C\C/C=C\C/C=C\C/C=C\C/C=C\C/C=C\CCC(=O)O` [DHA, docosahexaenoic acid] was run?
Answer: 378 ± 5

Question: And the “ONOO^−” value (HUVECs)?
Answer: 229 ± 16

Question: What does the source list for `CC/C=C\C/C=C\C/C=C\C/C=C\C/C=C\CCCC(=O)O` [EPA, cis-5,8,11,14,17-eicosapentaenoic acid]?
Answer: NO (HUVECs): 394 ± 43; ONOO^− (HUVECs): 228 ± 10; effect on unfractionated LDL oxidation, dose dependence (human LDL; 1 hour): significantly and reproducibly inhibited unfractionated LDL oxidation in a dose-dependent manner; inhibition of TBARS formation compared to vehicle-treated control (human LDL; highest treatment concentration, 1 hour): > 90%

Question: Which results are given for `Cc1ccc(C)c(OCCCC(C)(C)C(=O)O)c1` [gemfibrozil]?
Answer: NO/ONOO^− Ratio (HUVECs): 1.65±0.13; NO (HUVECs): 377 ± 24; ONOO^− (HUVECs): 228 ± 11; NO/ONOO^− Ratio (HUVECs; listed as Gemfib): 1.65 ± 0.13; effect on unfractionated LDL oxidation as compared to vehicle-treated controls (human LDL): no significant effect on unfractionated LDL oxidation

Question: `O=C(O)c1cccnc1` [niacin, nicotinic acid] was tested. Which “NO/ONOO^− Ratio” value (HUVECs) did it give?
Answer: 1.45±0.14

Question: What about the NO (HUVECs) of the same molecule?
Answer: 346 ± 17

Question: What about the “ONOO^−” value (HUVECs) of the same molecule?
Answer: 238 ± 20

Question: And the “NO/ONOO^− Ratio” value (HUVECs; listed as Niacin)?
Answer: 1.45 ± 0.14

Question: What about the “effect on unfractionated LDL oxidation as compared to vehicle-treated controls” value (human LDL) of the same molecule?
Answer: no significant effect on unfractionated LDL oxidation

Question: For `Cc1c(C)c2c(c(C)c1O)CC[C@@](C)(CCC[C@H](C)CCC[C@H](C)CCCC(C)C)O2` [vitamin E, α-tocopherol], which “effect on unfractionated LDL oxidation as compared to vehicle-treated controls” value (human LDL) is on record?
Answer: no significant effect on unfractionated LDL oxidation
